Measurements: ChEMBL document CHEMBL1201862, “PubChem BioAssay data set” (2004)
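Cultured in 96-well plates, cells were exposed to test compound for 48 hours across five concentrations. GI50 marks 50% less growth.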 Active and inactive are the calls of the source. Rule as the data show it: active = GI50 up to about 1.1 µM and inactive = higher.

What was measured:
Test in all cases: DTP human tumour cell line panel, 48 h
SK-MEL-5 = test system: SK-MEL-5
SK-MEL-2 = test system: SK-MEL-2
M19-MEL = test system: M19-MEL
U-251 = test system: U-251
KM-20L2 = test system: KM-20L2
OVCAR-5 = test system: OVCAR-5
HCC 2998 = test system: HCC 2998
DMS-273 = test system: DMS-273
A549 = test system: A549
RPMI-8226 = test system: RPMI-8226
SK-MEL-28 = test system: SK-MEL-28
OVCAR-4 = test system: OVCAR-4
UACC-257 = test system: UACC-257
KM12 = test system: KM12
OVCAR-3 = test system: OVCAR-3
NCI-H460 = test system: NCI-H460
HL-60 = test system: HL-60
UACC-62 = test system: UACC-62
NCI-H522 = test system: NCI-H522
EKVX = test system: EKVX
HOP-18 = test system: HOP-18
CCRF-CEM = test system: CCRF-CEM
SR = test system: SR
UO-31 = test system: UO-31
NCI-H23 = test system: NCI-H23
DLD-1 = test system: DLD-1
SNB-75 = test system: SNB-75
786-0 = test system: 786-0
DMS-114 = test system: DMS-114
SK-OV-3 = test system: SK-OV-3
HT-29 = test system: HT-29
SW-620 = test system: SW-620
SNB-19 = test system: SNB-19
HCT-15 = test system: HCT-15
M14 = test system: M14
SF-268 = test system: SF-268
HCT-116 = test system: HCT-116
Malme-3M = test system: Malme-3M
SNB-78 = test system: SNB-78
COLO 205 = test system: COLO 205
ACHN = test system: ACHN
SF-295 = test system: SF-295
RXF 393 = test system: RXF 393
SF-539 = test system: SF-539
LOX IMVI = test system: LOX IMVI
OVCAR-8 = test system: OVCAR-8
LXFL 529 = test system: LXFL 529
IGROV-1 = test system: IGROV-1
SN12C = test system: SN12C
RXF 631 = test system: RXF 631
NCI-H226 = test system: NCI-H226
K562 = test system: K562
A498 = test system: A498
TK-10 = test system: TK-10
CAKI-1 = test system: CAKI-1
MOLT-4 = test system: MOLT-4
HOP-92 = test system: HOP-92
HOP-62 = test system: HOP-62

CC(=O)OC1CC2C(C)(C)C(=O)C=C[C@]2(C)C2CCC3(C)C(=CCC3[C@H](CO)C[C@H](O)C(=O)C(C)(C)O)[C@]12C (stereo partly drawn)
GI50 (SK-MEL-5): 19 µM (inactive) | GI50 (SK-MEL-2): 20.7 µM (inactive) | GI50 (M19-MEL): 35.8 µM (inactive) | GI50 (U-251): 16.7 µM (inactive) | GI50 (KM-20L2): 13.6 µM (inactive) | GI50 (OVCAR-5): 31 µM (inactive) | GI50 (HCC 2998): 18.1 µM (inactive) | GI50 (DMS-273): 30.9 µM (inactive) | GI50 (A549): 24.2 µM (inactive) | GI50 (RPMI-8226): 22.3 µM (inactive) | GI50 (SK-MEL-28): 19.4 µM (inactive) | GI50 (OVCAR-4): 59.8 µM (inactive) | GI50 (UACC-257): 14.5 µM (inactive) | GI50 (KM12): 19.1 µM (inactive) | GI50 (OVCAR-3): 19.5 µM (inactive) | GI50 (NCI-H460): 16.6 µM (inactive) | GI50 (HL-60): 19.5 µM (inactive) | GI50 (UACC-62): 14.2 µM (inactive) | GI50 (NCI-H522): 23.6 µM (inactive) | GI50 (EKVX): 20.3 µM (inactive) | GI50 (HOP-18): 54.1 µM (inactive) | GI50 (CCRF-CEM): 17.9 µM (inactive) | GI50 (SR): 25.4 µM (inactive) | GI50 (UO-31): 23.7 µM (inactive) | GI50 (NCI-H23): > 10 µM (inactive) | GI50 (DLD-1): 14.9 µM (inactive) | GI50 (SNB-75): 24.3 µM (inactive) | GI50 (786-0): 19.7 µM (inactive) | GI50 (DMS-114): 33.9 µM (inactive) | GI50 (SK-OV-3): 13.7 µM (inactive) | GI50 (HT-29): 13.8 µM (inactive) | GI50 (SW-620): 21.1 µM (inactive) | GI50 (SNB-19): 31.7 µM (inactive) | GI50 (HCT-15): 17.8 µM | GI50 (M14): 21.7 µM (inactive) | GI50 (SF-268): 25.9 µM (inactive) | GI50 (HCT-116): 30.3 µM (inactive) | GI50 (Malme-3M): 14.7 µM (inactive) | GI50 (SNB-78): 76.4 µM (inactive) | GI50 (COLO 205): 42.1 µM (inactive) | GI50 (ACHN): 17.3 µM (inactive) | GI50 (SF-295): 12.9 µM (inactive) | GI50 (RXF 393): 16.5 µM (inactive) | GI50 (SF-539): 18.7 µM (inactive) | GI50 (LOX IMVI): 18.2 µM (inactive) | GI50 (OVCAR-8): 17.3 µM (inactive) | GI50 (LXFL 529): 42.4 µM (inactive) | GI50 (IGROV-1): 21.5 µM (inactive) | GI50 (SN12C): 26.4 µM (inactive) | GI50 (RXF 631): 30.5 µM (inactive) | GI50 (NCI-H226): 20.6 µM (inactive) | GI50 (K562): 27 µM (inactive) | GI50 (A498): 16.4 µM (inactive) | GI50 (TK-10): 26.5 µM (inactive) | GI50 (CAKI-1): 15.9 µM (inactive) | GI50 (MOLT-4): 22.6 µM (inactive)

Cc1ccc(NC(=O)C(=O)CC(=O)c2c(C)[n+]([O-])c3ccccc3[n+]2[O-])cc1
GI50 (SK-MEL-5): 26.8 µM (inactive) | GI50 (SK-MEL-2): 21 µM (inactive) | GI50 (M19-MEL): 16.4 µM (inactive) | GI50 (U-251): 31 µM (inactive) | GI50 (KM-20L2): 30.8 µM (inactive) | GI50 (OVCAR-5): 40.6 µM (inactive) | GI50 (HOP-92): 21.9 µM (inactive) | GI50 (HCC 2998): 44 µM (inactive) | GI50 (DMS-273): 25.9 µM (inactive) | GI50 (A549): 31 µM (inactive) | GI50 (RPMI-8226): 24.4 µM (inactive) | GI50 (SK-MEL-28): 46.6 µM (inactive) | GI50 (OVCAR-4): 22.6 µM (inactive) | GI50 (UACC-257): 24.2 µM (inactive) | GI50 (KM12): 29.2 µM (inactive) | GI50 (OVCAR-3): 12 µM (inactive) | GI50 (NCI-H460): 27.9 µM (inactive) | GI50 (HL-60): 19.3 µM (inactive) | GI50 (UACC-62): 17.7 µM (inactive) | GI50 (NCI-H522): 20.9 µM (inactive) | GI50 (EKVX): 16.9 µM (inactive) | GI50 (HOP-18): 30.9 µM (inactive) | GI50 (CCRF-CEM): 20.1 µM (inactive) | GI50 (SR): 20.5 µM (inactive) | GI50 (UO-31): > 100 µM (inactive) | GI50 (NCI-H23): 20.3 µM (inactive) | GI50 (SNB-75): 23.6 µM (inactive) | GI50 (786-0): 40.6 µM (inactive) | GI50 (DMS-114): 18.2 µM (inactive) | GI50 (SK-OV-3): 73.1 µM (inactive) | GI50 (HT-29): 33.6 µM (inactive) | GI50 (SW-620): 33.7 µM (inactive) | GI50 (SNB-19): 54.1 µM (inactive) | GI50 (HCT-15): 31.8 µM | GI50 (M14): 23.9 µM (inactive) | GI50 (SF-268): 35.8 µM (inactive) | GI50 (HCT-116): 18.6 µM (inactive) | GI50 (Malme-3M): 27.9 µM (inactive) | GI50 (SNB-78): 49.4 µM (inactive) | GI50 (COLO 205): 23.9 µM (inactive) | GI50 (ACHN): 26.2 µM (inactive) | GI50 (SF-295): 51.1 µM (inactive) | GI50 (RXF 393): 54.8 µM (inactive) | GI50 (SF-539): 29.2 µM (inactive) | GI50 (LOX IMVI): 20 µM (inactive) | GI50 (OVCAR-8): 22.8 µM (inactive) | GI50 (HOP-62): > 100 µM (inactive) | GI50 (LXFL 529): 35.2 µM (inactive) | GI50 (IGROV-1): 22 µM (inactive) | GI50 (SN12C): 36.5 µM (inactive) | GI50 (RXF 631): 36.5 µM (inactive) | GI50 (NCI-H226): > 100 µM (inactive) | GI50 (K562): 21.5 µM (inactive) | GI50 (A498): > 100 µM (inactive) | GI50 (TK-10): 91 µM (inactive) | GI50 (CAKI-1): 79.1 µM (inactive) | GI50 (MOLT-4): 23.4 µM (inactive)
